Bounds are passed on as bounds.

We go through 15 molecules from patent publication US8114994B2, “2′ and 3′-substituted cyclobutyl nucleoside analogs for the treatment viral infections and abnormal cellular proliferation” (Emory University, priority 2004, dated 2012).

One test deals with T1, HIV RT (M/V) (Human immunodeficiency virus type 1 group M subtype B, UniProt P04585, M771V).
T1 construct: from tissue; host or cells: HIV viral lysate (M184V mutant strain)
Briefly: Inhibition of HIV-RT from viral-lysate (M/V), M184V mutant. It counts as biochemical. The settings on record: for % Inhibition / cpm/ml: RT from viral lysate (M/V); for IC50: HIV RT (M/V) from viral lysates from infected PBMC, triplicates from one experiment.

For the next test, the target named is T2, HIV RT (M/I) (Human immunodeficiency virus type 1 group M subtype B, UniProt P04585, M771I).
T2 construct: from tissue; host or cells: HIV viral lysate (M184I mutant strain)
Briefly: Inhibition of HIV-RT from viral lysate, M184I mutant (M/I). It counts as biochemical. The settings on record: for % Inhibition / cpm/ml: M/I RT; for IC50: HIV RT (M/I) from viral lysates from infected PBMC, triplicates from one experiment.

Test [1] concerns the target T3, HIV-RT from viral-lysate (WT) (Human immunodeficiency virus type 1 group M subtype B, UniProt P04585).
T3 construct: from tissue; host or cells: HIV viral lysate
Briefly: Inhibition of HIV-RT from viral-lysate (WT). It counts as biochemical. To be noted: for % Inhibition / cpm/ml: RT from viral lysate (WT); for IC50: HIV RT (WT) from viral lysates from infected PBMC, triplicates from one experiment.

The next test deals with T4, Recombinant HIV RT (WT) (Human immunodeficiency virus type 1 group M subtype B, UniProt P04585).
T4 construct: was evaluated against recombinant wild type HIV-RT
Description: RT assay, recombinant wild type HIV-RT (cell-free). In kind it is biochemical. To be noted: triplicates from one experiment, read-out: Inhibition of RT Activity (IC50). How it is done: [drawing 29] was evaluated against recombinant wild type HIV-RT, as well as the M184I and M184V mutants, according to the RT assay described in Eriksson B F, Chu C K, Schinazi R F; Antimicrob. Agents Chemother. 1989, 33, 1729-1734. The results are tabulated in Tables 2-5 and depicted in FIGS. 1-3.

For a further test, the system named is Vero cells. Description: Toxicity in Vero cells. It counts as cell-based. To be noted: Chlorocebus sabaeus. As for the experimental part:
(§1) The cyclobutyl nucleoside analogs (CBN) were evaluated for their anti-HIV activity and cytotoxicity in PBM, CEM and Vero cells, according to known procedures.
(§2) The following cyclobutyl nucleoside compounds were evaluated for their anti-HIV activity and cytotoxicity in PBM cells, according to standard procedures.

The test system of test [2] is HIV. Briefly: Anti-HIV activity in PBM cells. In kind it is cell-based. The settings on record: Human immunodeficiency virus 1, PBMC. As for the experimental part:
as §1, §2

The subject of test [3] is HIV. Briefly: Anti-HIV activity in PBM cells. To be noted: Example 114, refers to Table 6. In kind it is cell-based.
A further test deals with CEM cells. Description: Toxicity in CEM cells. In kind it is cell-based. The settings on record: Homo sapiens, CCRF-CEM. As for the experimental part:
as §1, §2

The test system of the next test is PBM cells. Briefly: Toxicity in PBM cells. It counts as cell-based. The settings on record: PBMC. As for the experimental part:
as §1, §2

The test system of test [4] is HIV. The settings on record: after 28 days treatment; preliminary human data; cited from earlier work.

“5-fluoro-1-[cis-3-(hydroxymethyl)-cyclobutyl]-cytosine triphosphate [DLS183-TP]”: the “% Inhibition” value at HIV RT (M/V) (0.1 μM) worked out at 5%; on HIV RT (M/V) (1 μM), 22%; at HIV RT (M/V) (10 μM) it was 51%; at HIV RT (M/I) (0.1 μM), 0.01%; on HIV RT (M/I) (1 μM) it was 20%; on HIV RT (M/I) (10 μM), 53%. Further, the “% Inhibition” value came out at 0.01% in test [1] (0.1 μM), 18% in test [1] (1 μM) and 51% in test [1] (10 μM). For the same molecule, the cpm/ml on HIV RT (M/V) (0.1 μM) came out at 297603.432 cpm/ml; on HIV RT (M/V) (1 μM), 245062.692 cpm/ml; on HIV RT (M/V) (10 μM), 152688.27 cpm/ml; on HIV RT (M/I) (0.1 μM), 407041.44 cpm/ml; on HIV RT (M/I) (1 μM) it was 272130.486 cpm/ml; on HIV RT (M/I) (10 μM), 160719.12 cpm/ml. Moreover, the results for the cpm/ml in [1] (0.1 μM), in test [1] (1 μM) and in test [1] (10 μM) were 280781.826 cpm/ml, 228126.312 cpm/ml and 134616.36 cpm/ml, respectively. Moreover, the IC50 stood at 6.91 µM on HIV RT (M/V), 6.06 µM at HIV RT (M/I), 6.85 µM in test [1] and 4.74 µM at Recombinant HIV RT (WT).
Take `Nc1nc2c(ncn2[C@@H]2C[C@H](CO)C2F)c(=O)[nH]1` (stereo partly drawn) [DLS-223]: the IC50 in the test on Vero cells, with CEM cells and with PBM cells was more than 100 µM throughout. This molecule also showed a half-maximal effective concentration (EC50) in the test on HIV [2] of 27.7 µM. For the same molecule, in the test on HIV [2], the EC90 was more than 100 µM. The “inhibition of HIV-RT (in words)” value with HIV [3] is “significant inhibition”.
In the case of `Nc1ncnc2c1ncn2C[C@H]1C[C@H](CO)C1` [DLS-211], in the test on HIV [2], the EC50 was more than 100 µM.
Consider `Nc1nc2c(ncn2[C@@H]2CC(CO)C2CO)c(=O)[nH]1` (stereo partly drawn) [lobucavir, (R)-9-[2,3-Bis(hydroxymethyl)cyclobutyl]guanine], for which, in the test on HIV [4], the “reductions in HIV viral load” value is listed as not above 1.5 log.
For the molecule `OC[C@H]1C[C@@H](n2cnc3c(Cl)ncnc32)C1F` (stereo partly drawn) [DLS-197], the EC50 in the test on HIV [2] is more than 100 µM.
`Nc1ncnc2c1ncn2[C@@H]1C[C@H](CO)C1F` (stereo partly drawn) [DLS-206]: the IC50 in the test on Vero cells, in the test on CEM cells and in the test with PBM cells was more than 100 µM in each case. The molecule further yielded a concentration for a half-maximal effect (EC50) in the test with HIV [2] of 50.4 µM. The molecule further had a 90% effect concentration (EC90) with HIV [2] of more than 100 µM. Further, in the test with HIV [3], the “inhibition of HIV-RT (in words)” value is “significant inhibition”.
In the case of `Nc1nc(=O)n([C@@H]2C[C@H](CO)C2F)cc1F` (stereo partly drawn) [DLS-222], the concentration for a half-maximal effect (EC50) in the test with HIV [2] was more than 100 µM.
As for `Nc1ccn([C@@H]2CS[C@H](COP(=O)(O)OP(=O)(O)OP(=O)(O)O)O2)c(=O)n1` [Compound 3TC-TP, reference compound], the “% Inhibition” value on HIV RT (M/V) (0.1 μM) is 13%; at HIV RT (M/V) (1 μM) it was 7%; on HIV RT (M/V) (10 μM) it was 0.01%; on HIV RT (M/I) (0.1 μM), 0.03%; at HIV RT (M/I) (1 μM) it was 0.03%; at HIV RT (M/I) (10 μM), 13%. Also, the “% Inhibition” value in [1] (0.1 μM) was found to be 3.1%; in test [1] (1 μM), 22%; in [1] (10 μM), 55%. In addition, the cpm/ml at HIV RT (M/V) (0.1 μM) stood at 270239.712 cpm/ml; at HIV RT (M/V) (1 μM) it was 288267.666 cpm/ml; at HIV RT (M/V) (10 μM), 336946.272 cpm/ml; at HIV RT (M/I) (0.1 μM) it was 329435.346 cpm/ml; at HIV RT (M/I) (1 μM), 329605.62 cpm/ml; at HIV RT (M/I) (10 μM) it was 298628.406 cpm/ml. Moreover, the cpm/ml is on record as 268420.2 cpm/ml in test [1] (0.1 μM), 215883.012 cpm/ml in test [1] (1 μM) and 124341.312 cpm/ml in test [1] (10 μM). Moreover, the IC50 was more than 10 µM against HIV RT (M/V), more than 10 µM against HIV RT (M/I), 6.53 µM in test [1] and 2.99 µM at Recombinant HIV RT (WT).
`O=c1[nH]c(=O)n([C@@H]2C[C@H](CO)C2F)cc1F` (stereo partly drawn) [DLS-196] showed a half-maximal effective concentration (EC50) with HIV [2] of more than 100 µM.
`Nc1ncnc2c1ncn2CC1CC(CO)C1` (stereo not drawn) [DLS-212] registered an EC50 with HIV [2] of more than 100 µM.
In the case of `Nc1ccn([C@@H]2C[C@H](CO)C2F)c(=O)n1` (stereo partly drawn) [DLS-195], the EC50 in the test on HIV [2] is more than 100 µM.
On to `Nc1ncnc2c1ncn2[C@@H]1C[C@H](CO)C1O` (stereo partly drawn) [DLS-207], for which the IC50 was 97.8 µM in the test on Vero cells, more than 100 µM in the test on CEM cells and 13.8 µM in the test on PBM cells. The molecule also gave a concentration giving a half-maximal response (EC50) in the test with HIV [2] of 33.7 µM. This molecule returned a concentration for an effect of 90% (EC90) with HIV [2] of 60.1 µM. Also, in the test with HIV [3], the “inhibition of HIV-RT (in words)” value is “significant inhibition”.
Molecule `Nc1nc(O[C@@H]2C[C@H](CO)C2F)ncc1F` (stereo partly drawn) [DLS-221] displayed an EC50 in the test on HIV [2] of more than 100 µM.
On the same count and under the same terms, for `O=c1ccn([C@@H]2C[C@H](CO)C2F)c(=O)[nH]1` (stereo partly drawn) [DLS-194] the value was more than 100 µM; for `O=c1[nH]c(=O)n(C[C@@H]2C[C@H](CO)C2O)cc1F` (stereo partly drawn) [DLS-210], more than 100 µM.

For orientation: % Inhibition means the drop in the measured response relative to a control, in per cent. Broadly, the IC50 is the point on the concentration scale where inhibition reaches its midpoint. Broadly, the EC50 is the concentration at which the effect is half-maximal. The EC90 is the point of the concentration-response curve where the effect stands at 90%. Read a low EC90 as an effect from little substance.
